Data from US20040191297A1, “Carotenoid formulation” (priority 1997, published 2004).

Columns and labels:
[1] = Fecal lycopene analysis (24 hour fecal pellets); type: in vivo, rat; settings: for Fecal lycopene: male rat, 744 μg/g in diet
Description: (§1) Prior to termination, 3 animals from each group were placed in metabolic cages and 24-hour urine and fecal collections made for subsequent lycopene assay. Blood was collected by heart puncture under anesthesia for lycopene assay and all animals were sacrificed by CO2 anesthesia. Blood and feces were stored at −20° C. At necropsy, all major organ systems were grossly inspected. Any unusual appearing tissues were placed in formalin and saved for later histological examination.
Extraction of lycopene from diet was as follows: A sample of diet containing lycopene was suspended in the injection solvent (Table 4) and homogenized in a polytron homogenizer. Echinenone was added as an internal standard and the mixture centrifuged at 3000 rpm at 4° C. for 15 minutes. The supernatant was decanted and saved and the extraction repeated. The pooled extracts were then dried under N2 gas at 60° C. and the residue dissolved in 0.5 ml injection solvent and then subjected to HPLC analysis. The same method, with minor variations, was used for feces and for lung tissue. The efficiency of lycopene extraction from the diet is shown in Table 6 A&B. At any concentration tested the efficiency ranged from 75% at the highest concentration to 100% for the lowest concentration of lycopene.
The possibility that some lycopene decomposed upon storage prior to extraction must also be considered. […] This, no doubt, is due to the presence of water in the fecal pellet and to the geometry of the pellet. Once freeze-dried, the fecal pellet can easily be powdered, permitting easier access of the solvent to the fecal matrix.

in vivo = settings: Fischer 344, rat
Description: Breast, liver and prostate tissue contain lipids which interfere with the assay. Consequently, a saponification step was required prior to organic extraction. Tissue was homogenized in 20 ml methanol to which echinenone was added as internal standard. For breast tissue, which comprise of 85% adipocytes, 8.0 ml 50% NaOH and 4.0 ml 25% sodium ascorbate was added and the mixture was homogenized. For prostate and liver tissue, which contain less lipid, 4.0 ml and 50% NaOH. and 2.0 ml sodium ascorbate were added and the mixture was
homogenized. Saponification was carried out in 50 ml tubes saturated with N2 gas overnight in a temperature controlled shaker bath at 30° C. Following saponification, 10 ml hexane was add d to each tube and vortexed for 1 minute. The mixture was then centrifuged at 2000 rpm for 10 min at 4° C. and the hexane layer was decanted and saved. This hexane extraction procedure was repeated 5-7 times. The pooled hexane extract was then dried under N2 gas at 60° C., dissolved in injection solvent and analyzed by HPLC. Lung and colon tissue were processed in an identical manner with the exception that the saponification step was omitted.

glutathione = assay: Total glutathione assays of blood, liver and kidney; type: in vivo, Fischer 344 rats
Description: The rationale for measuring glutathione is that the reduced form of the tripeptide thiol, glutathione (Glu-Cys-Gly), participates directly in several key intracellular reactions, including protection against free radical damage. In contrast to carotenoids, which reside in the lipid phase, glutathione is found in the aqueous phase of the cell and there is evidence that lipid and aqueous phase anti-oxidants may interact with one another in such a manner that high levels of one may “spare” or limit the deletion of the other. Total (reduced and oxidized) glutathione assays of blood, liver and kidney (Tables 20-22) were conducted.
The determination of glutathione was by HPLC with dual electrochemical detection (see Kleinman, W. A. & Richie, J. P., J. Chromatogr B 672:73-80, 1995). only 1 case, at the highest lycopene level, was there a significant increase in glutathione levels and this occurred only in the liver.

retinol = assay: Liver vitamin A assay; type: in vivo, Fischer 344 rats; settings: male
[2] = Lycopene content of rat serum; type: in vivo, Fischer 344 rats
Description: as §1
Extraction of lycopene from serum was conducted by adding 1 ml of serum to 0.1 ml echinenone standard in ethanol and 0.9 ml ethanol. The mixture was then vortexed for 20 seconds, and 2.0 ml hexane added and mixed vigorously for 1 minute. The cloudy mixture was then centrifuged at 3,000 rpm for 15 minutes at 4° C. and the clear hexane layer was decanted. The above procedure was repeated 3-5×. The pooled hexane fraction was then dried under N2 gas at 60° C., and the residue dissolved in 0.5 ml HPLC solvent and analyzed by HPLC.

[3] = lyophilization + organic extraction
[4] = female, Group 1 (1280 mg/kg diet)
[5] = female, Group 2 (512 mg/kg diet)
[6] = female, Group 3 (256 mg/kg diet)
[7] = female, Group 5 (51 mg/kg diet)
[8] = male, Group 1 (1280 mg/kg diet)

CC(C)=CCC/C(C)=C/C=C/C(C)=C/C=C/C(C)=C/C=C/C=C(C)/C=C/C=C(C)/C=C/C=C(\C)CCC=C(C)C [Lycopene]
24 hr fecal lycopene [1, 3]: 5,406 μg | Fecal lycopene [1, 3]: 3,754 μg/g | Fecal lycopene ([1]; organic extraction): 2,992 μg/g | 24 hr fecal lycopene ([1]; organic extraction): 4,309 μg | % Efficiency (fecal output/input) ([1]; organic extraction): 44% | Kp (in vivo): 100 to 1000 | Kidney glutathione (glutathione; female, lycopene 51 ppm): 0.900 ± 0.101^ μmol/g | Liver glutathione (glutathione; female, lycopene 51 ppm): 6.01 ± 0.309 µmol/g | Whole blood glutathione (glutathione; female, lycopene 51 ppm): 0.832 ± 0.158^+ μmol/g | Kidney glutathione (glutathione; female, lycopene 128 ppm): 0.950 ± 0.0758^ μmol/g | Liver glutathione (glutathione; female, lycopene 128 ppm): 6.54 ± 1.09^+ μmol/g | Whole blood glutathione (glutathione; female, lycopene 128 ppm): 0.890 ± 0.202 µmol/g | Kidney glutathione (glutathione; female, lycopene 256 ppm): 1.030 ± 0.414^+ μmol/g | Liver glutathione (glutathione; female, lycopene 256 ppm): 4.87 ± 1.14 µmol/g | Whole blood glutathione (glutathione; female, lycopene 256 ppm): 0.848 ± 0.0988 µmol/g | Kidney glutathione (glutathione; female, lycopene 512 ppm): 1.090 ± 0.163^+ μmol/g | Liver glutathione (glutathione; female, lycopene 512 ppm): 5.88 ± 0.492 µmol/g | Whole blood glutathione (glutathione; female, lycopene 512 ppm): 0.930 ± 0.123 µmol/g | Kidney glutathione (glutathione; female, lycopene 1280 ppm): 0.089 ± 0.045^+ μmol/g | Liver glutathione (glutathione; female, lycopene 1280 ppm): 7.38 ± 0.705^+ μmol/g | Whole blood glutathione (glutathione; female, lycopene 1280 ppm): 1.080 ± 0.104 µmol/g | dose-related changes in glutathione (glutathione; liver, kidney or whole blood): No dose-related changes | Kidney glutathione (glutathione; male, lycopene 51 ppm): 0.688 ± 0.316 µmol/g | Liver glutathione (glutathione; male, lycopene 51 ppm): 6.77 ± 1.53 µmol/g | Whole blood glutathione (glutathione; male, lycopene 51 ppm): 1.030 ± 0.0387 µmol/g | Kidney glutathione (glutathione; male, lycopene 128 ppm): 0.686 ± 0.170 µmol/g | Liver glutathione (glutathione; male, lycopene 128 ppm): 5.38 ± 0.363 µmol/g | Whole blood glutathione (glutathione; male, lycopene 128 ppm): 0.920 ± 0.169 µmol/g | Kidney glutathione (glutathione; male, lycopene 256 ppm): 0.624 ± 0.104 µmol/g | Liver glutathione (glutathione; male, lycopene 256 ppm): 4.59 ± 1.37 µmol/g | Whole blood glutathione (glutathione; male, lycopene 256 ppm): 0.910 ± 0.106 µmol/g | Kidney glutathione (glutathione; male, lycopene 512 ppm): 0.854 ± 0.055^+ μmol/g | Whole blood glutathione (glutathione; male, lycopene 512 ppm): 0.990 ± 0.141 µmol/g | Kidney glutathione (glutathione; male, lycopene 1280 ppm): 0.828 ± 0.128^+ μmol/g | Liver glutathione (glutathione; male, lycopene 1280 ppm): 7.16 ± 1.95^+ μmol/g | Whole blood glutathione (glutathione; male, lycopene 1280 ppm): 0.948 ± 0.294 µmol/g | Liver retinol (retinol; Group 7, lycopene 1280 mg/kg diet): 388 μg/gm | Liver retinol (retinol; Group 8, lycopene 512 mg/kg diet): 119 μg/gm | Liver retinol (retinol; Group 9, lycopene 256 mg/kg diet): 584 μg/gm | Liver retinol (retinol; Group 11, lycopene 51 mg/kg diet): 454 μg/gm | concentration at 10 weeks ([2]; both sexes, Fischer 344, rat, serum, oral, all supplemented groups, males and females, read-out: Serum lycopene levels, overall low to high): 80 to 370 ng/mL | Lycopene content of serum, Median [2, 4]: 205 ng/mL | Lycopene content of serum, Range [2, 4]: 123 to 232 ng/mL | Lycopene content of serum, mean ± SD [2, 4]: 187 ± 043 ng/mL | Lycopene content of serum, Median [2, 5]: 180 ng/mL | Lycopene content of serum, Range [2, 5]: 109 to 211 ng/mL | Lycopene content of serum, mean ± SD [2, 5]: 169 ± 042 ng/mL | Lycopene content of serum, Median [2, 6]: 210 ng/mL | Lycopene content of serum, Range [2, 6]: 174 to 366 ng/mL | Lycopene content of serum, mean ± SD [2, 6]: 245 ± 083 ng/mL | Lycopene content of serum, Median [2, 7]: 152 ng/mL | Lycopene content of serum, Range [2, 7]: 081 to 207 ng/mL | Lycopene content of serum, mean ± SD [2, 7]: 145 ± 053 ng/mL | Lycopene content of serum, Median [2, 8]: 160 ng/mL | Lycopene content of serum, Range [2, 8]: 134 to 230 ng/mL | Lycopene content of serum, mean ± SD [2, 8]: 168 ± 036 ng/mL | Lycopene content of serum, Median ([2]; male, Group 2 (512 mg/kg diet)): 225 ng/mL | Lycopene content of serum, Range ([2]; male, Group 2 (512 mg/kg diet)): 148 to 326 ng/mL | Lycopene content of serum, mean ± SD ([2]; male, Group 2 (512 mg/kg diet)): 227 ± 068 ng/mL | Lycopene content of serum, Median ([2]; male, Group 3 (256 mg/kg diet)): 285 ng/mL | Lycopene content of serum, Range ([2]; male, Group 3 (256 mg/kg diet)): 174 to 372 ng/mL | Lycopene content of serum, mean ± SD ([2]; male, Group 3 (256 mg/kg diet)): 278 ± 066 ng/mL | Lycopene content of serum, Median ([2]; male, Group 4 (128 mg/kg diet)): 215 ng/mL | Lycopene content of serum, Range ([2]; male, Group 4 (128 mg/kg diet)): 153 to 328 ng/mL | Lycopene content of serum, mean ± SD ([2]; male, Group 4 (128 mg/kg diet)): 231 ± 064 ng/mL | Lycopene content of serum, Median ([2]; male, Group 5 (51 mg/kg diet)): 177 ng/mL | Lycopene content of serum, Range ([2]; male, Group 5 (51 mg/kg diet)): 100 to 238 ng/mL | Lycopene content of serum, mean ± SD ([2]; male, Group 5 (51 mg/kg diet)): 171 ± 049 ng/mL
